Earlier results in article PMC6311893, “Computational prediction of plasma protein binding of cyclic peptides from small molecule experimental data using sparse modeling techniques” (BMC Bioinformatics, 2018).
Where two headings read alike, the source gives them in different places. Non-standard residues stand in square brackets, D forms with d. Residues, ends and D or L forms follow the SMILES beside them. dPhe(4-Cl) = N[C@H](Cc1ccc(Cl)cc1)C(=O)O; d2Nal = N[C@H](Cc1ccc2ccccc2c1)C(=O)O; dCit = NC(=O)NCCC[C@@H](N)C(=O)O; d3Pal = N[C@H](Cc1cccnc1)C(=O)O

Tested on: plasma protein
Settings: cited from earlier work
[1] = fraction bound to plasma protein, small molecule dataset, sheet 1-SM (Set Dte = test, Dtr = training), ref Ingle et al.
[2] = fraction bound to plasma protein, small molecule dataset, sheet 1-SM, Set Dtr, ref Ingle et al.
[3] = fraction bound to plasma protein, small molecule dataset, sheet 1-SM, ref Ingle et al.

O=C(O)c1cn(-c2cccc(C(F)(F)F)c2)c2cc(N3CCNCC3)c(F)cc2c1=O [3b(m-CF3)]
PPB (fb) [1]: 0.62

O=C(O)C1=C(CSc2nnnn2CS(=O)(=O)O)CS[C@@H]2[C@H](NC(=O)[C@H](O)c3ccccc3)C(=O)N12 [cefonicid]
PPB (fb) [1]: 0.98

O=C(O)c1cn(-c2cccc(O)c2)c2cc(N3CCNCC3)c(F)cc2c1=O [8b(m-OH)]
PPB (fb) [1]: 0.35

CN[C@H]1CC[C@@H](c2ccc(Cl)c(Cl)c2)c2ccccc21 [sertraline]
PPB (fb) [1]: 0.98

C[C@@H]1O[C@@H](O[C@@H]2C=C3CC[C@@H]4[C@H](CC[C@]5(C)[C@@H](c6ccc(=O)oc6)CC[C@]45O)[C@@]3(C)CC2)[C@H](O)[C@H](O)[C@H]1O [proscillaridin]
PPB (fb) (plasma): 0.85

Nc1ncn([C@H]2C[C@H](O)[C@@H](CO)O2)c(=O)n1 [Decitabine]
PPB (fb) [1]: 0

C=CC(N)CCC(=O)O (stereo not drawn) [vigabatrin]
PPB (fb) [2]: 0

CCCCC1C(=O)N(c2ccccc2)N(c2ccccc2)C1=O [phenylbutazone]
PPB (fb) [3]: 0.98

OC(CNCC(O)C1CCc2cc(F)ccc2O1)C1CCc2cc(F)ccc2O1 (stereo not drawn) [nebivolol]
PPB (fb) [1]: 0.98

COC(CC(=O)NC1C(=O)N2C1SC(C)(C)C2C(=O)O)c1cccs1 (stereo not drawn) [penicillin73]
PPB (fb) [3]: 0.59

N[C@@H](Cc1cc(I)c(Oc2ccc(O)c(I)c2)c(I)c1)C(=O)O [liothyronine]
PPB (fb) [3]: 0.98

COc1ccc(O)cc1C(C)(C)C [2-butyl-4-hydroxyanisole]
PPB (fb) [1]: 0.85

C[C@H]1C[C@H]2[C@@H]3CCC4=CC(=O)C=C[C@]4(C)[C@@]3(F)[C@@H](O)C[C@]2(C)[C@@]1(O)C(=O)CO [Betamethasone]
PPB (fb) [2]: 0.66

CC(C)(Oc1ccc(CCNC(=O)c2ccc(Cl)cc2)cc1)C(=O)O [bezafibrate]
PPB (fb) [1]: 0.95

O=C1CC[C@@]2(O)[C@H]3Cc4ccc(O)c5c4[C@@]2(CCN3CC2CC2)[C@H]1O5 [Naltrexone]
PPB (fb) [2]: 0.2

COc1ccc2c3c1O[C@H]1[C@@H](O)C=C[C@H]4[C@@H](C2)N(C)CC[C@@]341 [Codeine]
PPB (fb) (plasma): 0.21

CC(=O)N[C@H](Cc1ccc2ccccc2c1)C(=O)N[C@H](Cc1ccc(Cl)cc1)C(=O)N[C@H](Cc1cccnc1)C(=O)N[C@@H](CO)C(=O)N[C@@H](Cc1ccc(O)cc1)C(=O)N[C@H](CCCNC(N)=O)C(=O)N[C@@H](CC(C)C)C(=O)N[C@@H](CCCNC(=N)N)C(=O)N1CCC[C@H]1C(=O)N[C@H](C)C(N)=O [Cetrorelix] (Ac-[d2Nal][dPhe(4-Cl)][d3Pal]SY[dCit]LRP[dA]-NH2)
PPB (fb) (human, plasma): 0.86

Fc1ccccc1C1=NCC(=S)N(CC(F)(F)F)c2ccc(Cl)cc21 [quazepam]
PPB (fb) (plasma): 0.95

CNc1nc(N(C)C)nc(N(C)C)n1 [pentamethylmelamine]
PPB (fb) [3]: 0.75

C=C(c1ccc(C(=O)O)cc1)c1cc2c(cc1C)C(C)(C)CCC2(C)C [Bexarotene]
PPB (fb) [1]: 0.99

CN(C)c1nc(N(C)C)nc(N(C)C)n1 [altretamine]
PPB (fb) [1]: 0.94

Nc1cc(N2CCCCC2)nc(N)[n+]1[O-] [minoxidil]
PPB (fb) [3]: 0.03

CO[C@@]1(NC(=O)C(C(=O)O)c2ccc(O)cc2)C(=O)N2C(C(=O)O)=C(CSc3nnnn3C)CO[C@@H]21 (stereo partly drawn) [Moxalactam]
PPB (fb) [2]: 0.53

COC1/C=C/OC2(C)Oc3c(C)c(O)c4c(O)c(c(/C=N/N5CCN(C6CCCC6)CC5)c(O)c4c3C2=O)NC(=O)/C(C)=C\C=C\C(C)C(O)C(C)C(O)C(C)C(O)C1C (stereo not drawn) [25-desacetylrifapentine]
PPB (fb) [1]: 0.98

CN1C[C@H](C(=O)N[C@]2(C)O[C@@]3(O)[C@@H]4CCCN4C(=O)[C@H](Cc4ccccc4)N3C2=O)C=C2c3cccc4[nH]cc(c34)C[C@H]21 [Ergotamine]
PPB (fb) (plasma): 0.96

CC(C)NC[C@H](O)COc1ccc(O)cc1 [prenalterol]
PPB (fb) [3]: 0.04

COc1c(C)c2c(c(O)c1C/C=C(\C)CCC(=O)OCCN1CCOCC1)C(=O)OC2 [Mycophenolate mofetil]
PPB (fb) [3]: 0.97

Cefoperazone
PPB (fb) (plasma): 0.92

trichloroethanol
PPB (fb) (plasma): 0.35

O=C1C(CC[S+]([O-])c2ccccc2)C(=O)N(c2ccccc2)N1c1ccccc1 (stereo not drawn) [Sulfinpyrazone]
PPB (fb) [3]: 0.98

CCNC(=O)[C@@H]1CCCN1C(=O)[C@H](CCCNC(=N)N)NC(=O)[C@H](CC(C)C)NC(=O)[C@@H](COC(C)(C)C)NC(=O)[C@H](Cc1ccc(O)cc1)NC(=O)[C@H](CO)NC(=O)[C@H](Cc1c[nH]c2ccccc12)NC(=O)[C@H](Cc1cnc[nH]1)NC(=O)[C@@H]1CCC(=O)N1 [buserelin]
PPB (fb) (human, plasma): 0.15

Cc1ccc(O)c([C@H](CCN(C(C)C)C(C)C)c2ccccc2)c1 [Tolterodine]
PPB (fb) [3]: 0.96

CN[C@@H](C)Cc1ccccc1 [Methamphetamine]
PPB (fb) (plasma): 0.15

C=CC1(O)CN2CCC1CC2C(O)c1ccnc2ccc(OC)cc12 (stereo not drawn) [3-Hydroxy Quinidine]
PPB (fb) (plasma): 0.6

C#C[C@]1(O)CC[C@H]2[C@@H]3[C@H](C)CC4=C(CCC(=O)C4)[C@H]3CC[C@@]21C [tibolone]
PPB (fb) [3]: 0.96

CN1CCN(C(c2ccccc2)c2ccccc2)CC1 [cyclizine]
PPB (fb) [1]: 0.6

CSc1ccc(/C=C2/C(C)=C(CC(=O)O)c3cc(F)ccc32)cc1 [Sulindac sulfide]
PPB (fb) [3]: 0.94

C=C(CC)C(=O)c1ccc(OCC(=O)O)c(Cl)c1Cl [ethacrynic acid]
PPB (fb) [3]: 0.9

NC(=O)OC[C@@H]1[C@H](NC(=O)/C(=N\OCC(=O)O)c2csc(N)n2)C(=O)N1S(=O)(=O)O [Carumonam]
PPB (fb) [2]: 0.28

CCO [ethanol]
PPB (fb) (plasma): 0

CN(C)CCC=C1c2ccccc2CCc2ccccc21 [Amitriptyline]
PPB (fb) [1]: 0.94

Cc1ccc(/C(=C\CN2CCCC2)c2ccccn2)cc1 [triprolidine]
PPB (fb) [2]: 0.9

O=C(O)c1cccnc1 [niacin]
PPB (fb) [3]: 0.22

O=C1CN=C(c2ccccn2)c2cc(Br)ccc2N1 [Bromazepam]
PPB (fb) (plasma): 0.61

N=C(N)NC(=O)Cc1c(Cl)cccc1Cl [Guanfacine]
PPB (fb) [2]: 0.72

O=[N+]([O-])OCC(CO[N+](=O)[O-])O[N+](=O)[O-] [nitroglycerin]
PPB (fb) (plasma): 0.6

CCOCC(=O)NC1C(=O)N2C1SC(C)(C)C2C(=O)O (stereo not drawn) [penicillin6]
PPB (fb) [3]: 0.28

CCC1(c2ccc(N)cc2)CCC(=O)NC1=O (stereo not drawn) [aminoglutethimide]
PPB (fb) [1]: 0.24

COc1cc(NS(C)(=O)=O)ccc1Nc1c2ccccc2nc2ccccc12 [Amsacrine]
PPB (fb) [2]: 0.98

O=C1c2c(O)ccc(O)c2C(=O)c2c(NCCNCCO)ccc(NCCNCCO)c21 [Mitoxantrone]
PPB (fb) [1]: 0.8

COC(=O)[C@H]1[C@@H](OC(=O)c2ccccc2)C[C@@H]2CC[C@H]1N2C [Cocaine]
PPB (fb) (plasma): 0.89
